≈ marks a conversion by molar mass, not a printed value. Where two headings read alike, the source gives them in different places. Blank lines part the entries; values can stand above or below the molecule they belong to.
Legend:
[1] = women, after 7 days of IVR use
Description: The trial consisted of an open-label, crossover design where six participants sequentially used a TDF pod-IVR for seven days followed by a TDF-FTC pod-IVR, with a washout period of at least 14 days between each treatment period. Women who were clinically deemed eligible returned to the clinic for IVR insertion visit (Visit 1, TDF IVR; Visit 5, TDF-FTC IVR) after cessation of menses. Women returned for Visit 2 (TDF IVR) or Visit 6 (TDF-FTC IVR) on Day 2 (±1 d) after IVR insertion and for Visit 3 (TDF IVR) or Visit 7 (TDF-FTC IVR) on Day 7 (±1 d) when the IVRs were removed. At Visit 3/7, vaginal biopsies were obtained, and the IVRs were collected. Tissue samples were ultimately reported as ng/mg or fmol/mg, respectively, following normalization to net biopsy or Dacron swab weight.

[2] = cited from earlier work
[3] = sheep, in vivo
Experimental: FIG. 15 illustrates a graph of cervicovaginal lavage concentration (median+SD) of estonogestrel (1510) and ethiny estradiol (1505) delivered simultaneously via combination pod IVRs over 28 days in sheep (n=3). Inverted triangles: estonogestrel; Diamonds: ethiny estradiol.
FIG. 15 illustrates a graph of ETG-EE release: ETG (1510); EE (1505). The pod-in-rings for this example delivered etonogestrel (ETG) and […]. The silicone pod IVRs contained two pods of EE at 16 mg API per pod (32 mg drug per ring) and ETG at 10 mg API per pod (20 mg drug per ring). Median ETG CVL levels (13±6.9 nM) were 8 times higher than the corresponding […] levels (1.6±1.2 nM), in agreement with the relative daily release rates of ETG and EE from the NuvaRing® (120 μg day^−1 and 15 μg day^−1, respectively). Plasma levels were not measured, the preliminary results should imply a match for in vivo and in vitro release compared to Nuvaring®.

[4] = systemic delivery; cited from earlier work
[5] = system: HSV; experiment: Inhibition of HSV infection by acyclovir, dose-response curve; assay type: cell-based; conditions: drug added at the time of HSV challenge and in the overlay medium; read-out: concentration of acyclovir that inhibits infection by 50% (IC50)
Experimental: The concentration of acyclovir that inhibits infection by 50% (IC50) when drug was added at the time of HSV challenge and in the overlay medium was ˜700 ng/mL.
In FIG. 16, panel A (1605), the percentage inhibition of HSV infection was determined in the presence of increasing concentrations of acyclovir (ACV). In panel B (1610) the percentage inhibition of HSV infection was determined in the presence of the indicated CVL sample or control fluid. Results are means from duplicate wells and each participant is represented by a different symbol (1615); the horizontal lines (1620) indicate the medians for the groups. In panel C (1625), the relationship between drug levels and percentage inhibition was determined by the Spearman correlation coefficient. Filled circles (1630) represent CVL samples obtained 24 h after oral VCV dosing, and open circles (1635) are CVL samples obtained 7 days after ring insertion.

[6] = beyond 190° C.; cited from earlier work

vaginal biopsy homogenate tissue levels [1]: high enough for PrEP action
Compound: CC(Cn1cnc2c(N)ncnc21)OCP(=O)(O)OP(=O)(O)OP(=O)(O)O (stereo in doubt) [TFV-DP, Tenofovir diphosphate]

Compound: C#C[C@]1(O)CC[C@H]2[C@@H]3CCc4cc(O)ccc4[C@H]3CC[C@@]21C [EE, Ethinyl Estradiol]
solubility in water [2]: highly hydrophobic

ETG CVL levels relative to estradiol (E2) levels [3]: 8 times
Compound: C#C[C@]1(O)CC[C@H]2[C@@H]3CCC4=CC(=O)CC[C@@H]4[C@H]3C(=C)C[C@@]21CC [ETG, Etonogestrel]
solubility in water [2]: highly hydrophobic

vaginal biopsy homogenate tissue levels [1]: high enough for PrEP action
Compound: Nc1nc(=O)n([C@@H]2CS[C@H](CO)O2)cc1F [FTC, Emtricitabine]

Compound: Cc1nc(N(C)C(=O)Cc2ccc(-c3ccccn3)cc2)sc1S(N)(=O)=O [Pritelivir]
solubility in water [2]: insoluble in water
solubility in water ([2]; listed as pritelivir): low solubility
toxicity when delivered systemically [4]: significant toxicity

Compound: Nc1nc2c(ncn2COCCO)c(=O)[nH]1 [acyclovir]
IC50 [5]: ~0.7 µg/mL (≈ 3.11 µM)
solubility in water [2]: extremely water soluble
thermal stability [6]: higher thermal stability even beyond 190 °C

Compound: CCNC(=O)[C@@H]1CCCN1C(=O)[C@H](CCCNC(=N)N)NC(=O)[C@H](CC(C)C)NC(=O)[C@@H](CC(C)C)NC(=O)[C@H](Cc1ccc(O)cc1)NC(=O)[C@H](CO)NC(=O)[C@H](Cc1c[nH]c2ccccc12)NC(=O)[C@H](Cc1c[nH]cn1)NC(=O)[C@@H]1CCC(=O)N1 [leuprolide]
thermal stability [6]: not heat-stable beyond 190 °C

Compound: C[C@@H](O)[C@@H]1NC(=O)[C@H](CCCCN)NC(=O)[C@@H](Cc2c[nH]c3ccccc23)NC(=O)[C@H](Cc2ccccc2)NC(=O)[C@@H](NC(=O)[C@H](N)Cc2ccccc2)CSSC[C@@H](C(=O)N[C@H](CO)[C@@H](C)O)NC1=O [octreotide]
solubility in water [2]: very soluble

From patent US20200038641A1, “DRUG DELIVERY DEVICE WITH REMOVABLE PODS AND RELATED PODS, METHODS AND SYSTEMS” (priority 2017, published 2020)
